Data published in the supplement of paper PMC11061612.

What was measured:
Assay in all cases: combination Emax (second highest fraction inhibited in the dose matrix, 72 h); higher = more inhibition; extreme values may be limits of the assay
[1] = system: NCI-H1623 (Lung Adenocarcinoma)
Outline: (§1)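 After 24 hours at 37°C and 5% CO2 in 1536-well plates, cells in DMEM/F12 or RPMI plus 10% FBS received two-drug dose matrices for 72 hours. Viability came from CellTiter-Glo 2.0 luminescence and was scaled as inhibition, anchored at 0 by vehicle wells and at 1 by blank wells. Combination Emax is taken as the second-highest inhibition in the matrix, and Bliss excess as the observed combination effect less EA + EB − EA·EB, with EA and EB the single-agent effects.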

[2] = system: Calu-6 (Non-Small Cell Lung Carcinoma)
Outline: as §1

[3] = system: SNU-175 (Colorectal Carcinoma)
Outline: as §1

[4] = system: SJRH30 (Rhabdomyosarcoma)
Outline: as §1

[5] = system: COLO-684 (Endometrial Carcinoma)
Outline: as §1

[6] = system: FLO-1 (Esophageal Adenocarcinoma)
Outline: as §1

[7] = system: KYSE-70 (Esophageal Squamous Cell Carcinoma)
Outline: as §1

[8] = system: BALL-1 (B-Lymphoblastic Leukemia)
Outline: as §1

[9] = system: NCI-H1563 (Lung Adenocarcinoma)
Outline: as §1

[10] = system: NCI-H810 (Non-Small Cell Lung Carcinoma)
Outline: as §1

[11] = system: Becker (Low Grade Glioma)
Outline: as §1

[12] = system: LAMA-84 (Chronic Myelogenous Leukemia)
Outline: as §1

[13] = system: CML-T1 (Chronic Myelogenous Leukemia)
Outline: as §1

[14] = system: NKM-1 (Acute Myeloid Leukemia)
Outline: as §1

[15] = system: HTC-C3 (Thyroid Gland Carcinoma)
Outline: as §1

[16] = system: RL95-2 (Endometrial Carcinoma)
Outline: as §1

[17] = system: NCI-H1155 (Non-Small Cell Lung Carcinoma)
Outline: as §1

[18] = system: 786-0 (Kidney Carcinoma)
Outline: as §1

[19] = system: RT4 (Bladder Carcinoma)
Outline: as §1

[20] = system: Caov-3 (Ovarian Carcinoma)
Outline: as §1

SMILES | combination Emax [1] | combination Emax [2] | combination Emax [3] | combination Emax [4] | combination Emax [5] | combination Emax [6] | combination Emax [7] | combination Emax [8] | combination Emax [9] | combination Emax [10] | combination Emax [11] | combination Emax [12] | combination Emax [13] | combination Emax [14] | combination Emax [15] | combination Emax [16] | combination Emax [17] | combination Emax [18] | combination Emax [19] | combination Emax [20]
CN(CCO)CC[C@H](CSc1ccccc1)Nc1ccc(S(=O)(=O)NC(=O)c2ccc(N3CCC([C@@H](O)c4ccccc4-c4ccc(Cl)cc4)CC3)cc2)cc1S(=O)(=O)C(F)(F)F [AZD4320] + CCN(CCO)CCCOc1ccc2c(Nc3cc(CC(=O)Nc4cccc(F)c4)[nH]n3)ncnc2c1 [AZD2811] (first compound max 1 µM, 7x7, partner max 1 µM) | 0.197 | 0.801 | 0.996 | 0.503 | 0.178 | 0.699 | 0.391 | 1 | 0.188 | 0.894 | 0.224 | 0.906 | 0.994 | 1 | 0.347 | 0.92 | 0.918 | 0.166 | 1 | 0.94
Cc1c2c(nn1C)CSCc1cc(n(C)n1)CSc1cc(c3ccccc3c1)OCCCc1c(C(=O)O)n(C)c3c-2c(Cl)ccc13 [AZD5991] + CN(C)CCCOc1ccc(-c2ccc3ncc4c(c3c2)n(C2CCOCC2)c(=O)n4C)cn1 [AZD0156] (first compound max 1 µM, 7x7, partner max 1 µM) | 0.891 | 0.282 | 0.458 | 0.544 | 0.332 | 0.36 | 0.156 | 0.606 | 0.668 | 0.474 | 0.141 | 0.177 | 0.223 | 0.967 | 0.179 | 0.977 | 0.626 | 0.251 | 0.289 | 0.39
C=CCn1c(=O)c2cnc(Nc3ccc(N4CCN(C)CC4)cc3)nc2n1-c1cccc(C(C)(C)O)n1 [AZD1775] + C[C@@H]1COCCN1C2=NC(=NC(=C2)C3(CC3)[S@](=N)(=O)C)C4=C5C=CNC5=NC=C4 [AZD6738] (first compound max 1 µM, partner max 10 µM) | 0.74 | 0.808 | 0.702 | 0.962 | 0.851 | 0.924 | 0.656 | 0.988 | 0.446 | 0.975 | 0.678 | 0.993 | 0.971 | 0.983 | 0.882 | 0.914 | 0.864 | 0.888 | 0.623 | 0.762
CC1(C)CCC(CN2CCN(c3ccc(C(=O)NS(=O)(=O)c4ccc(NCC5CCOCC5)c([N+](=O)[O-])c4)c(Oc4cnc5[nH]ccc5c4)c3)CC2)=C(c2ccc(Cl)cc2)C1 [Venetoclax] + CCN(CCO)CCCOc1ccc2c(Nc3cc(CC(=O)Nc4cccc(F)c4)[nH]n3)ncnc2c1 [AZD2811] (first compound max 1 µM, 7x7, partner max 1 µM) | 0.211 | 0.346 | 0.912 | 0.287 | 0.19 | 0.359 | 0.224 | 1 | 0.193 | 0.492 | 0.221 | 0.594 | 0.991 | 1 | 0.121 | 0.593 | 0.887 | 0.159 | 0.702 | 0.892
CC1(C)CCC(CN2CCN(c3ccc(C(=O)NS(=O)(=O)c4ccc(NCC5CCOCC5)c([N+](=O)[O-])c4)c(Oc4cnc5[nH]ccc5c4)c3)CC2)=C(c2ccc(Cl)cc2)C1 [Venetoclax] + COc1cc(Nc2ncc3c(n2)-c2ccc(Cl)cc2C(c2c(F)cccc2OC)=NC3)ccc1C(=O)O [Alisertib] (first compound max 1 µM, 7x7, partner max 10 µM) | 0.391 | 0.584 | 0.818 | 0.423 | 0.264 | 0.514 | 0.392 | 1 | 0.466 | 0.53 | 0.547 | 0.934 | 0.965 | 0.98 | 0.365 | 0.588 | 0.809 | 0.37 | 0.791 | 0.838
COc1cccc(OCCCN)c1-c1cc(Nc2cnc(C#N)cn2)n[nH]1 [Prexasertib] + C[C@@H]1COCCN1C2=NC(=NC(=C2)C3(CC3)[S@](=N)(=O)C)C4=C5C=CNC5=NC=C4 [AZD6738] (first compound max 1 µM, 7x7, partner max 10 µM) | 0.827 | 0.772 | 0.616 | 0.943 | 0.864 | 0.763 | 0.602 | 0.998 | 0.262 | 0.9 | 0.733 | 0.99 | 0.97 | 0.938 | 0.842 | 0.898 | 0.93 | 0.901 | 0.555 | 0.785
CN(CCO)CC[C@H](CSc1ccccc1)Nc1ccc(S(=O)(=O)NC(=O)c2ccc(N3CCC([C@@H](O)c4ccccc4-c4ccc(Cl)cc4)CC3)cc2)cc1S(=O)(=O)C(F)(F)F [AZD4320] + Cc1cc2ncnn2cc1Nc1ncc2c(n1)n(C1CCOCC1)c(=O)n2C [AZD7648] (first compound max 1 µM, 7x7, partner max 10 µM) | 0.298 | 0.59 | 0.446 | 0.147 | 0.197 | 0.347 | 0.132 | 1 | 0.35 | 0.43 | 0.124 | 0.752 | 0.99 | 1 | 0.342 | 0.0598 | 0.772 | 0.138 | 0.355 | 0.551
COc1cccc(OCCCN)c1-c1cc(Nc2cnc(C#N)cn2)n[nH]1 [Prexasertib] + CN(C)CCCOc1ccc(-c2ccc3ncc4c(c3c2)n(C2CCOCC2)c(=O)n4C)cn1 [AZD0156] (first compound max 1 µM, 7x7, partner max 1 µM) | 0.804 | 0.745 | 0.632 | 0.94 | 0.854 | 0.724 | 0.618 | 0.999 | 0.352 | 0.877 | 0.711 | 0.988 | 0.987 | 0.956 | 0.768 | 0.888 | 0.885 | 0.861 | 0.304 | 0.806
CCc1c2c(nc3ccc(O)cc13)-c1cc3c(c(=O)n1C2)COC(=O)[C@]3(O)CC [SN-38] + O=C(c1cc(Cc2n[nH]c(=O)c3ccccc23)ccc1F)N1CCN(C(=O)C2CC2)CC1 [Olaparib] (first compound max 0.3 µM, 7x7, partner max 10 µM) |  | 0.776 | 0.471 | 0.444 | 0.514 | 0.479 | 0.304 | 1 |  | 0.557 | 0.818 | 0.948 | 1 | 0.987 | 0.686 |  | 0.968 | 0.931 | 0.832 | 0.984
Cn1cnc2c(F)c(Nc3ccc(Br)cc3Cl)c(C(=O)NOCCO)cc21 [Selumetinib] + CCN(CCO)CCCOc1ccc2c(Nc3cc(CC(=O)Nc4cccc(F)c4)[nH]n3)ncnc2c1 [AZD2811] (first compound max 10 µM, 7x7, partner max 1 µM) | 0.331 | 0.733 | 0.956 | 0.253 | 0.14 | 0.475 | 0.21 | 0.477 | 0.232 | 0.444 | 0.296 | 0.958 | 0.765 | 0.758 | 0.654 | 0.87 | 0.674 | 0.208 | 0.516 | 
NC1(C(=O)N[C@@H](CCO)c2ccc(Cl)cc2)CCN(c2ncnc3[nH]ccc23)CC1 [Capivasertib] + C[C@@H]1COCCN1C2=NC(=NC(=C2)C3(CC3)[S@](=N)(=O)C)C4=C5C=CNC5=NC=C4 [AZD6738] (first compound max 10 µM, 7x7, partner max 10 µM) | 0.82 | 0.792 | 0.709 | 0.89 | 0.798 | 0.652 | 0.377 | 1 | 0.501 | 0.648 | 0.747 | 0.941 | 0.988 | 0.933 | 0.823 | 0.886 | 0.816 | 0.809 | 0.577 | 
COc1nnc2ccc(N3CCC(c4ccc(OCCN5CCN(C)C(=O)[C@H]5C)cc4)CC3)nn12 [AZD5153] + Cn1cnc2c(F)c(Nc3ccc(Br)cc3Cl)c(C(=O)NOCCO)cc21 [Selumetinib] (first compound max 1 µM, 7x7, partner max 10 µM) | 0.706 | 0.854 | 0.742 | 0.486 | 0.549 | 0.635 | 0.424 | 0.859 | 0.465 | 0.587 | 0.388 | 1 | 0.452 | 0.995 | 0.804 | 0.66 | 0.686 | 0.577 | 0.686 | 
